Where two headings read alike, the source gives them in different places. No end group written: not given here.

Here are results for ten substances from publication PMC5751205, “Rapid Non-Enzymatic Glycation of the Insulin Receptor under Hyperglycemic Conditions Inhibits Insulin Binding In Vitro: Implications for Insulin Resistance” (International Journal of Molecular Sciences, 2017).

The conditions of assay [1]: ref [41],[42], cited from earlier work. The procedure: Table 1 Table summarizing experiments to identify motifs determining insulin-receptor (IR) peptide glycation and whether glycation of IR peptides results in inhibition of insulin binding to these peptides. Specifically, this table provides binding constants glucose binding non-covalently to various insulin receptor (IR) peptides; glycation of the same IR peptides at 20 mM glucose for six days; the | column: Glucose Binding Kd (mM)

In assay [2] the target is T1, insulin-HRP (Homo sapiens, UniProt P01308). Nature of the assay: Effect of glycation on insulin-HRP binding to IR peptides. Particulars: for Change of INS-HRP binding to the peptide after glycation: 6-day exposure to 20 mM glucose, triplicate, averaged; for Ins-HRP Binding Inhibition (Glycated): change in Ins-HRP binding at 10 nM after exposure of the peptide to glycating conditions (six days at 20 mM glucose). The procedure: Insulin receptor peptides (Figure 1) were synthesized by RS Synthesis (Louisville, KY, USA) to at least 95% purity by high pressure liquid chromatography (HPLC) and mass spectrometry. Peptides or recombinant human insulin (rHu) (Lilly, Indianapolis, IN, USA) were dissolved in glucose-free, phenol-red-free, Dulbecco’s modified Eagle growth medium (DMEM) to 1 mg/mL. Stock 2.0 M D-glucose (Sigma-Aldrich, St. Louis, MO, USA) solutions were also made in DMEM. The peptide and glucose stocks were combined to yield final reaction solutions with peptides at 0.1 mg/mL and glucose at […]. Combinations were incubated at 36–38 °C for 1–6 days. Reactions were stopped and solutions were stored by freezing at −20 °C. Glycated peptides were desalted by centrifugal filtration through Ultrafree-MC 5 kda or Ultracel 3 kda filter units. Resulting retentate was resuspended in low ionic strength saline immediately before performing mass spectrometry.
T1 sequence (P01308 90-110): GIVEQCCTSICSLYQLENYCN
T1 sequence (P01308 25-54): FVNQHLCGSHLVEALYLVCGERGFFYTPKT
(§1) Each peptide was held constant at 0.1 mg/mL in pH 7.4 phosphate-buffered saline, and 100 μL aliquots were pipetted into rows of a Costar high-binding ELISA plate and incubated for an hour. The plate was washed 3× with 0.1% Tween 20 (Sigma-Aldrich) in 0.05 M phosphate buffered saline (PBS). Two hundred µL 2% polyvinyl alcohol in PBS were added to each well and incubated 1 h. The plates were then washed 3× again with 0.1% Tween 20. A solution of insulin conjugated to horse-radish peroxidase (HRP), 0.83 µg in 1.0 mL PBS, was made and serially diluted with PBS by thirds, ten times. These serial dilutions were added to the plate wells, incubated for an hour, and then washed 3× as before. Finally, 100 µL of stock ABTS [2,2′-azino-bis(3-ethylbenzothiazoline-6-sulphonic acid)] (Millipore, Burlington, MA, USA) was added to each well, incubated for thirty minutes, and the plate was then read on a SpectraMax Plus scanning microplate spectrophotometer at 405 nm. Controls wells lacking peptide but with PVA, INS-HRP and ABTS measured non-specific binding that was subtracted from the absorbance values of the rest of the wells. All experiments were run in triplicate and the averages of the corrected absorbances were then plotted against the concentration of the INS–HRP for each peptide to yield binding curves. Because binding curves are calculated by plotting differences, it was not possible to incorporate error bars into these curves.
The same technique just described in Section 4.3 was used to measure the effect of glycation on INS-HRP binding to IR peptides as above with one change: IR peptides were serially diluted instead of the INS-HRP, which was held constant. This methodological modification was made in order to reduce the amount of IR peptide required to obtain results. As in Section 4.3, each experiment was run in triplicate and the results averaged.

Assay [3] addresses T1, insulin-HRP. Nature of the assay: Insulin-HRP binding to IR peptides (ELISA plate, ABTS read-out). To be noted: Ins-HRP at 10 nM, IR peptide in the absence of glycation. As for the experimental part:
as §1

Assay [4] relates to insulin receptor (IR), intact recombinant, glycated. Briefly: Insulin binding to intact glycated insulin receptor by UV spectroscopy. To be noted: IR incubated six days at 37 °C in 20 mM glucose, measured as decrease in absorbance. As for the experimental part:
(§2) Intact recombinant IR was obtained from Sigma-Aldrich (St. Louis, MO, USA) and utilized at 42.9 units/mL in phosphate buffered saline, pH 7.4 (PBS) or in PBS with 20 mM glucose added. PBS and 20 mM glucose solutions of IR were incubated for six days at 37 °C. An aliquot of each preparation was then subjected to centrifugal filtration and washing through Ultrafree-MC 5 kda or Ultracel 3 kda filter units. The resulting retentates were resuspended in PBS. In this way, identical preparations of unglycated IR and glycated IR were made in both PBS and in 20 mM gucose PBS. Microliter quantities of PBS buffer, or 20 mM glucose PBS, or human recombinant INS (Sigma-Aldrich, St. Louis, MO, USA) in PBS or 20 mM glucose PBS were then added serially to 100 µL of each of the four preparations of IR and to control wells containing only PBS or 20 mM glucose PBS. Experiments were carried out in a crystal 96-well plate and the serial combinations subjected to UV spectrophotometry to obtain their spectra. The spectra of the control wells were subtracted from the spectra of the experimental wells to yield expected values at each UV wavelength and differences between the controls and experimental values determined. […] Binding constants were determined from the concentration at which the binding curves inverted. […]

In assay [5] the target is insulin receptor (IR), intact recombinant, unglycated. Briefly: Insulin binding to intact unglycated insulin receptor by UV spectroscopy. To be noted: one of two independent runs. As for the experimental part: as §2
Where [6] appears, read: glucose binding non-covalently to the peptide, read-out: Glucose Binding Kd.

Take H-NLTVIRGSRLFFNY [105-118]: the Kd in assay [1] (setting [6]) was 35 mM. Also, at insulin-HRP [2], the “Change of INS-HRP binding to the peptide after glycation” value (shortened to “Change of INS-HRP binding”) is “very significant loss of INS-HRP binding” and the “Ins-HRP Binding Inhibition (Glycated)” value was “YES”. For the same substance, the “10 nM Ins-HRP Binding (Native)” value at insulin-HRP [3] is recorded as “YES”.
Regarding H-TQGKLFFHYNPK [453-464], the Kd in assay [1] (setting [6]) was 57 mM. Besides, the “Ins-HRP Binding Inhibition (Glycated)” value on insulin-HRP [2] is recorded as “no”. Besides, the “10 nM Ins-HRP Binding (Native)” value on insulin-HRP [3] is “no”.
Take “ENCSVIEGHLQ [51-61, synthetic insulin receptor peptide, residues 51-61 of human IR, insulin-like]”: in assay [1] (setting [6]), the Kd is 52 mM. For the same substance, at insulin-HRP [2] (200 mM glucose, six days), the “Insulin-HRP binding after incubation of the peptide in 200 mM glucose” value is reported as “nearly undetectable levels”. At insulin-HRP [2], the “Change of INS-HRP binding” value is “very significant loss of INS-HRP binding” and the “Ins-HRP Binding Inhibition (Glycated)” value was “YES”. The “Factor by which glycation reduces the insulin-HRP binding constant” value at insulin-HRP [2] (peptide incubated in 20 and 60 mM glucose over six days) is “approximately 2”. The “10 nM Ins-HRP Binding (Native)” value on insulin-HRP [3] is listed as “YES”.
Take “HLYFGEVCPGMDIRNN [28-43, synthetic insulin receptor peptide, residues 28-43 of human IR (UniProt P06213)]”: in assay [1] (setting [6]), the Kd is 50 mM. The “Ins-HRP Binding Inhibition (Glycated)” value on insulin-HRP [2] was “no”. The “10 nM Ins-HRP Binding (Native)” value at insulin-HRP [3] is reported as “no”.
As for “GMDIRNNLTRLHELE [37-51, synthetic insulin receptor peptide, residues 37-51 of human IR (UniProt P06213)]”, in assay [1] (setting [6]), the Kd was 40 mM. Also, the “Ins-HRP Binding Inhibition (Glycated)” value on insulin-HRP [2] is given as “no”. Moreover, the “10 nM Ins-HRP Binding (Native)” value at insulin-HRP [3] was “no”.
As for H-FRVYGLESLKDLF [91-103], in assay [1] (setting [6]), the Kd was 37 mM. Moreover, at insulin-HRP [2], the “Change of INS-HRP binding” value is “very significant loss of INS-HRP binding” and the “Ins-HRP Binding Inhibition (Glycated)” value was “YES”. Also, the “10 nM Ins-HRP Binding (Native)” value at insulin-HRP [3] is reported as “YES”.
As for “ESEDSQKHNQSEYEDS [689-705, synthetic insulin receptor peptide, residues 689-705 of human IR]”, the dissociation constant (Kd) in assay [1] (setting [6]) was 63 mM. The “Ins-HRP Binding Inhibition (Glycated)” value on insulin-HRP [2] is listed as “no”. Also, the “10 nM Ins-HRP Binding (Native)” value on insulin-HRP [3] is “no”.
For the substance “KTFEDYLHNVVFV [730-742, synthetic insulin receptor peptide, residues 730-742 of human IR]”, the dissociation constant Kd in assay [1] (setting [6]) was 60 mM. For the same substance, on insulin-HRP [2], the “Ins-HRP Binding Inhibition (Glycated)” value is listed as “no”. Also, the “10 nM Ins-HRP Binding (Native)” value on insulin-HRP [3] is listed as “no”.
As to H-TIDWSRILDS [157-166], the Kd in assay [1] (setting [6]) is 57 mM. Further, the “Ins-HRP Binding Inhibition (Glycated)” value at insulin-HRP [2] is “no”. The “10 nM Ins-HRP Binding (Native)” value at insulin-HRP [3] was “no”.
Consider “Insulin: recombinant human insulin (Lilly for glycation; Sigma-Aldrich for IR binding)”, for which the Kd is 0.25 mM in assay [1] (setting [6]) and 30 mM in assay [1] (glucose binding non-covalently, second of two values printed for insulin, read-out: Glucose Binding Kd (mM), second value). Further, the “Decrease in amount of INS binding due to glycation of the IR, in 20 mM glucose” value in assay [4] (binding in PBS with 20 mM glucose) is recorded as “one third”. Besides, the “Decrease in amount of INS binding due to glycation of the IR, in PBS” value in assay [4] (binding in PBS without glucose) is given as “one third”. The “Binding constant of unglycated INS for unglycated IR in 20 mM glucose” value in assay [5] (PBS pH 7.4 with 20 mM glucose) is listed as 110 µg/mL of INS. In addition, the “Binding constant of unglycated INS for unglycated IR in PBS” value in assay [5] (PBS pH 7.4 without glucose, concentration at which the binding curve inverted) is given as 70 µg/mL of INS.
